According to patent US20180305341A1 (RAQUALIA PHARMA INC., priority 2015, published 2018):

target: T1, human TRPM8 (Homo sapiens, UniProt Q7Z2W7); experiment: Menthol-induced Ca2+ influx in HEK293 cells stably expressing human TRPM8; type: cell-based; details: 30 microM menthol, read-out: IC50 against TRPM8
T1 construct: expressed in transfected cells
Description: Measurement of the Menthol-Induced Ca^2+ Influx in HEK293 Cells Stably Expressing Human TRPM8
A cell-based Ca^2+ influx assay using HEK293 cells stably expressing human TRPM8 is used to identify the activity of compounds.
HEK293 cells stably expressing human TRPM8 are grown in T175 flasks at 37° C. in a 5% CO2 humidified incubator to about 80% confluence. Media composition consists of Dulbecco's Modified Eagle Medium (high glucose), 10% fetal calf serum (FCS), 100 units/mL Penicillin, 100 microg/mL Streptomycin and 600 microg/mL Geneticine. At 24 hours prior to assay, cells are seeded in poly-D-lysine coated 384-well plates (BD FALCON) at a density of 30,000 cells per well in culture medium and grown overnight in 5% CO2 at 37° C. On the assay day, growth media is removed and cells are loaded with 0.5 microM Fluo4-AM (Molecular Probes) and 0.005% Pluronic F-127 dissolved in assay buffer (Hank's balanced salt solution (HBSS), 19.4 mM HEPES pH 7.4, 2.5 mM Probenecid) for 1 hour at room temperature. After washing with assay buffer, the cells are preincubated with various concentrations of the compounds for 5 min. The changes in intracellular calcium concentration by addition of 30 microM menthol are monitored by the cell imaging technology by Hamamatsu Photonics Functional Drug Screening System (FDSS).
The IC50 values for compounds of the present invention are determined from 11-point dose-response studies. Curves are generated using the average of duplicate wells for each data point. Finally, the IC50 values are calculated with the best-fit dose curve determined by XLfit (ID Business Solutions Ltd.).

T1 sequence (Q7Z2W7 whole entry): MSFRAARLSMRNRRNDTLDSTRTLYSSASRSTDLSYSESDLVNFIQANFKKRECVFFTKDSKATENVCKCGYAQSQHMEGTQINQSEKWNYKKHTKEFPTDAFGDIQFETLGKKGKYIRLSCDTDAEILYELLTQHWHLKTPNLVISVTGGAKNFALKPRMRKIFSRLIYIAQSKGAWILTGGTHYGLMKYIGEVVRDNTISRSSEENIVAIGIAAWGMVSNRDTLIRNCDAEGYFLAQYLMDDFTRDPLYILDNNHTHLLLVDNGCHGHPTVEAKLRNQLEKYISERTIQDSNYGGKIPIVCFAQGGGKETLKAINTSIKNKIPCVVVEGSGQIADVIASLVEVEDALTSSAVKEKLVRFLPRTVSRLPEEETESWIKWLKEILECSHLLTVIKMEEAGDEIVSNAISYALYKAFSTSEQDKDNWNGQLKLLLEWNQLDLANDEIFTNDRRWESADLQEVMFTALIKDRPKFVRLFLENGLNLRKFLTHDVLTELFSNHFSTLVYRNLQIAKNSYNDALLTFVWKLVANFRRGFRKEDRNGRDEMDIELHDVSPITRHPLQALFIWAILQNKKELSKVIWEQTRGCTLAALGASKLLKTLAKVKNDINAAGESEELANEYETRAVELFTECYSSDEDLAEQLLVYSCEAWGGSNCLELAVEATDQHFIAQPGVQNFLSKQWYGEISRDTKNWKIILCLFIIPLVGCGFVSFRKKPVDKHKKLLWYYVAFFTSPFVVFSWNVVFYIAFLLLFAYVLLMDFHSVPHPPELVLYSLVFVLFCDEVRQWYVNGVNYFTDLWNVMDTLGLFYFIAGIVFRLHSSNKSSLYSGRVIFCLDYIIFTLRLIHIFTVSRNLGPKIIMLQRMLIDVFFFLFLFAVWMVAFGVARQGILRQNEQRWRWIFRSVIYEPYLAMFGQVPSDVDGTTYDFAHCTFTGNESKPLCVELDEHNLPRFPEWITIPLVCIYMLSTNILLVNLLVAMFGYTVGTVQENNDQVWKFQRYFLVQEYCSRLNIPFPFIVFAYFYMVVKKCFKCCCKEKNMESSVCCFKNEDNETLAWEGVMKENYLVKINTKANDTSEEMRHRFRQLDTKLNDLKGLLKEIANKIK

SMILES | IC50
CC1=NC2(CCCCC2)C(=O)N1CC(=O)c1ccc(-n2c(C)nc3ccccc32)cc1 [Example 2, 2-methyl-3-(2-(4-(2-methyl-1H-benzo[d]imidazol-1-yl)phenyl)-2-oxoethyl)-1,3-diazaspiro[4.5]dec-1-en-4-one] | < 50 nM
CCC1=NC2(CCC(F)(F)CC2)C(=O)N1CC(=O)c1ccc(Oc2cccnn2)cc1 [Example 3, 2-ethyl-8,8-difluoro-3-(2-oxo-2-(4-(pyridazin-3-yloxy)phenyl)ethyl)-1,3-diazaspiro[4.5]dec-1-en-4-one] | < 50 nM
CC1=NC2(CCC(F)(F)CC2)C(=O)N1CC(=O)c1ccc(Oc2cccnn2)cc1 [Example 1] | < 50 nM

Further lines, results first:

IC50 | SMILES
< 100 nM | CC1=NC2(CCC(F)(F)CC2)C(=O)N1CC(=O)c1ccc(-c2nnccc2C)cc1 [Example 4, 8,8-difluoro-2-methyl-3-(2-(4-(4-methylpyridazin-3-yl)phenyl)-2-oxoethyl)-1,3-diazaspiro[4,5]dec-1-en-4-one]
< 50 nM | CC1=NC2(CCC(F)(F)CC2)C(=O)N1CC(=O)c1ccc(-n2c(C)nc3ccccc32)cc1 [Example 5, 8,8-difluoro-2-methyl-3-(2-(4-(2-methyl-1H-benzo[d]imidazol-1-yl)phenyl)-2-oxoethyl)-1,3-diazaspiro[4.5]dec-1-en-4-one]
< 50 nM | CC1=NC2(CCC(F)(F)CC2)C(=O)N1CC(=O)c1ccc(-n2c(C)nc3cccnc32)cc1 [Example 6, 8,8-difluoro-2-methyl-3-(2-(4-(2-methyl-3H-imidazo[4,5-b]pyridin-3-yl)phenyl)-2-oxoethyl)-1,3-diazaspiro[4.5]dec-1-en-4-one]
